From patent publication US5534416A, “Fluorescent viability assay using cyclic-substituted unsymmetrical cyanine dyes” (Molecular Probes, Inc., priority 1993, dated 1996)

Experiments:
nucleic acids = assay: Excitation/emission maxima of dyes complexed with nucleic acids; type: physicochemical; set-up: key: wavelength in nm; conditions: Table 2; dye complexed with nucleic acids
DNA = assay: Quantum yield of dye on DNA versus fluorescein; type: physicochemical; conditions: for QY (DNA): Table 2, Tris buffered saline pH 10, fluorescein assumed 0.92
[1] = system: Peripheral blood lymphocytes; assay: Live/dead staining of peripheral blood lymphocytes, fluorescence microscopy; type: cell-based, goat; conditions: 1 μM dye 637, 1 μM calcein AM, 30 minutes each, either order
Experimental: Peripheral blood lymphocytes are isolated from whole goat blood using the standard ficoll density gradient protocol. The cells are incubated in saline buffer with coverslips coated with a cell adhesive. After attachment to the coverslip, the cells are incubated with either
a) 1 μM dye 637 for 30 minutes followed by washing, and subsequently incubating with 1 μM calcein AM for 30 minutes, or
b) as above but labeling first with calcein AM, and subsequently staining with dye 637.
After washing with saline, the stained cells are viewed through a long-pass fluorescein filter to view calcein fluorescence and a long-pass Texas Red® filter to view the emission of dye 637. A Nikon fluorescence microscope equipped with a 40× objective is used for inspection and photography.

[2] = system: NIH/3T3 mouse fibroblast cell line; assay: Live/dead staining of fibroblasts, fluorescence microscopy; type: cell-based
Experimental: NIH/3T3 mouse fibroblast cell line is obtained from American Type Culture Collection Co., Rockville, Md. The cells are maintained in a humidified atmosphere of 5% CO2 in Dulbecco's modified Eagle's medium (DMEM) supplemented with 10% calf serum, 50 μg/mL gentamicin, 300 μg/mL L-glutamine and 10 mM HEPES pH 7.4. Cells are subcultured every 3 days by trypsinization using 0.05% trypsin and 0.02% EDTA in a Ca- and Mg-free saline solution (Gibco BRL, Gaithersburg, Md.).
A 5 μM staining solution of the dye 61 is prepared by dilution of 25 μL of 2 mM stock solution into 10 mL DMEM. A 2 μM staining solution of ethidium homodimer-1 is prepared by dilution of 2 μL of 10 mM stock solution into 10 mL phosphate buffered saline (PBS).
The 3T3 cells are stained with the 5 μM solution of dye 61, and then incubated in the dark at room temperature for 30 minutes. The cells are then […] with the 2 μM ethidium homodimer-1 solution.
The 3T3 cells are then observed a long-pass fluorescein filter to view dye 61 fluorescence and a long-pass Texas Red® filter to view the emission of ethidium homodimer. A Nikon fluorescence microscope equipped with a 40× objective is used for inspection and photography.

calf thymus DNA = conditions: Table 5; bound to excess calf thymus DNA (50 bp/dye); cited from earlier work
prokaryotic microbes = conditions: Kaneshiro et al. 1993; cited from earlier work
intact cells = conditions: cited from earlier work
P. aeruginosa = assay: Fluorescence per cell, stained bacteria (microtiter plate reader); type: cell-based, Pseudomonas aeruginosa; conditions: optimal dye concentration, corrected for cell number
Experimental: (§1) 1. Measured in a fluorescence microtiter plate reader with extraction and
(§2) emission filters at 485+/-10 and 530+/-12, respectively. Fluorescence dat
(§3) are corrected for cell number; but are not corrected for cell volume or
(§4) 2. Optimal dye concentrations determined as in Example 3.
(§5) 3. Suspension concentrations as used for Example 3.
(§6) A culture of E. coli is washed by centrifugation and resuspended in water to its original volume. Using Corning 96-well microtiter plates with flat bottoms, 150 μL volumes of suspension are loaded per well. A single well of sterile water is the well background standard. Using a Dynatech MR600 microplate reader equipped with a 410 nm filter, absorbance is determined for the initial volumes of suspension. The suspension is diluted seven times by serial ten-fold dilutions in water, 150 μL of suspension per well, and the absorbance measured for each dilution. Following the absorbance measurements, each dilution loaded into wells is further diluted 1:10 and plated in duplicate on nutrient growth agar. The colonies are counted and expressed as colony forming units per milliliter (cfu/mL). Using the turbidity of the dilution in the microtiter plate, the suspension is diluted to a density of about 1×10^9 cfu/mL.
(§7) The bacteria suspension, adjusted to a known density as described above, is diluted seven times by serial ten-fold dilutions in water; 150 μL of suspension per well. Three-fold serial dilutions of dye are used (30-0.04 μM); 50 μL of dye at 4× final concentration. Using Corning 96-well microtiter flat-bottom plates, a matrix is set up whereby the cell concentration decreases across the plate and the dye concentration decreases down the plate, final volume per well is 200 μL. The top row and first column are reserved for the control, sterile water. The plate is incubated at 37° C. for 30 minutes, then read in a Millipore Cytofluor™ 2350 96-well fluorescence microplate reader at a fixed excitation of 485+/-10 nm and each of three emission wavelengths, 530+/-12, 620+/-20, or 645+/-20 nm. The results determine the best dye range (30-1 μM) and the best cell concentrations (concentrated through first three ten-fold dilutions) for optimal dye loading. […] Using the four dye dilutions and the four bacterial dilutions, many bacteria and dyes can be assayed quickly. The data collected allow the determination of optimal dye and cell concentration required for maximal fluorescence intensity per cell.

S. sonnei = assay: as above; type: cell-based, Shigella sonnei; conditions: optimal dye concentration, corrected for cell number
Experimental: as §1, §2, §3, §4, §5, §6, §7

K. pneumonia = assay: as above; type: cell-based, Klebsiella pneumonia; conditions: optimal dye concentration, corrected for cell number
Experimental: as §1, §2, §3, §4, §5, §6, §7

M. luteus = assay: as above; type: cell-based, Micrococcus luteus; conditions: optimal dye concentration, corrected for cell number
Experimental: as §1, §2, §3, §4, §5, §6, §7

E. coli = assay: as above; type: cell-based, Escherichia coli
From the text: as §1, §2, §3, §4, §5
(§8) Factors such as degree of fluorescence enhancement with nucleic acid binding, self quenching, molar extinction coefficient, membrane permeability, intracellular partitioning, nucleic acid binding affinity, and quantum yield contribute to the overall fluorescence of nucleic acid stains in cells. Enhanced cell fluorescence obtained with Dye I is related to unexpected properties other than quantum yield alone. Quantum yield is determined as described above (foot note to Table 2). Normalized quantum yield is determined to illustrate the fold-change in quantum yield of Dye I compared with thiazole orange, a related cell-permeant dye. The normalized fluorescence values represent the quantum yield of each dye divided by the quantum yield of thiazole orange. Fluorescence per cell is also scaled to thiazole orange values for both E. coli and S. aureus to allow direct comparison between relative (normalized) quantum yield and relative (normalized) fluorescence/cell.
as §6, §7

B. cereus = assay: as above; type: cell-based, Bacillus cereus; conditions: optimal dye concentration, corrected for cell number
Experimental: as §1, §2, §3, §4, §5, §6, §7

S. aureus = assay: as above; type: cell-based, Staphylococcus aureus
From the text: as §1, §2, §3, §4, §5, §8, §6, §7

S. pyogenes = assay: as above; type: cell-based, Streptococcus pyogenes; conditions: optimal dye concentration, corrected for cell number
Experimental: as §1, §2, §3, §4, §5, §6, §7

S. oranienburg = assay: as above; type: cell-based, Salmonella oranienburg; conditions: optimal dye concentration, corrected for cell number
Experimental: as §1, §2, §3, §4, §5, §6, §7

## CCCCC1=CC(=CC=Cc2oc3ccccc3[n+]2C)c2ccccc2N1c1ccccc1 [compound 637]
Nucleic acids
  EM max: 622
  EX max: 601
DNA
  QY (DNA): 0.28
[1]
  staining of dead cells: stained only with dye 637 and do not exhibit green fluorescence

## Nc1ccc2c(c1)c(-c1ccccc1)[n+](CCCNCCNCCC[n+]1c(-c3ccccc3)c3cc(N)ccc3c3ccc(N)cc31)c1cc(N)ccc21 [Ethidium homodimer-1]
[2]; 2 μM
  staining of dead cells: dead cells are stained fluorescent red
Calf thymus DNA
  EM max: 617 nm
  EX max: 528 nm

## Nc1ccc2c(c1)c(-c1ccccc1)[n+](CCCNCCNCCC[n+]1c(-c3ccccc3)c3cc(N)ccc3c3ccc(N)cc31)c1cc(N)ccc21 [ethidium homodimer]
Prokaryotic microbes
  usefulness with prokaryotic microbes versus eukaryotic microbes: less useful with cells from prokaryotic microbes

## Calcein AM
Intact cells; 37° C., up to
  T1/2 (time for half of dye to leak from intact cells): up to 3 hour
Intact cells; in words
  Loading: Easily loaded
  Retention: very good
  pH sensitivity: not very
Prokaryotic microbes
  usefulness with prokaryotic microbes versus eukaryotic microbes: less useful with cells from prokaryotic microbes

## CCCCC1=CC(=Cc2sc3ccccc3[n+]2C)c2ccccc2N1c1ccccc1 [compound 61]
P. aeruginosa
  Fluorescence/Cell (ex 485/em 530): 5
S. sonnei
  Fluorescence/Cell (ex 485/em 530): 6
[2]; 5 μM, 30 minutes, room temperature
  staining of live cells: live cells are stained fluorescent green
K. pneumonia
  Fluorescence/Cell (ex 485/em 530): 10
M. luteus
  Fluorescence/Cell (ex 485/em 530): 49
Nucleic acids
  EM max: 527
  EX max: 500
E. coli; E. coli, optimal dye concentration, corrected for cell number
  Fluorescence/Cell (ex 485/em 530): 10
E. coli; scaled to thiazole orange
  Normalized Fluorescence/cell (ex 485 nm/em 530 nm), Escherichia coli: 5
B. cereus
  Fluorescence/Cell (ex 485/em 530): 196
DNA; QY divided by QY of thiazole orange
  Normalized QY: 2.5
DNA
  QY (DNA): 0.46
DNA; Table 7, on DNA, fluorescein reference
  QY: 0.46
S. aureus; S. aureus, optimal dye concentration, corrected for cell number
  Fluorescence/Cell (ex 485/em 530): 15
S. aureus; scaled to thiazole orange
  Normalized Fluorescence/cell (ex 485 nm/em 530 nm), Staphylococcus aureus: 4.7
S. pyogenes
  Fluorescence/Cell (ex 485/em 530): 0.01
S. oranienburg
  Fluorescence/Cell (ex 485/em 530): 10
